The structures appear in SMILES notation.

The test has as its target purified Human plasma Kallikrein (Homo sapiens (Human), UniProt P03952). Briefly: Kallikrein Assay. It is filed as biochemical. As to conditions: purified Human plasma Kallikrein 0.5 nM; substrate Acetyl-K-P-R-AFC; 50 mM HEPES pH 7.4; Ki from IC50 by Cheng Prusoff. How it is done: The effectiveness of a compound of the present invention as an inhibitor of Kallikrein can be determined using a relevant purified serine protease, and an appropriate synthetic substrate. The rate of hydrolysis of the chromogenic or fluorogenic substrate by the relevant serine protease was measured both in the absence and presence of compounds of the present invention. Assays were conducted at rt or at 37° C. […] A decrease in the rate of fluorescence change in the presence of inhibitor is indicative of enzyme inhibition. Such methods are known to one skilled in the art. The results of this assay are expressed as the inhibitory constant, Ki.
Kallikrein determinations were made in 50 mM HEPES buffer at pH 7.4 containing 150 mM NaCl, 5 mM CaCl2, and 0.1% PEG 8000 (polyethylene glycol; Fisher Scientific). Determinations were made using purified Human plasma Kallikrein at a final concentration of 0.5 nM (Enzyme Research Laboratories) and the synthetic substrate, Acetyl-K-P-R-AFC (Sigma # C6608) at a concentration of […].
Times required to achieve equilibration between enzyme and inhibitor were determined in control experiments. […] IC50 was determined by inflection point from a four parameter logistic curve fit. Ki was calculated using the Cheng Prusoff equation, Ki=IC50/(1+([S]/Km)).

Chain of purified Human plasma Kallikrein (P03952 391-638): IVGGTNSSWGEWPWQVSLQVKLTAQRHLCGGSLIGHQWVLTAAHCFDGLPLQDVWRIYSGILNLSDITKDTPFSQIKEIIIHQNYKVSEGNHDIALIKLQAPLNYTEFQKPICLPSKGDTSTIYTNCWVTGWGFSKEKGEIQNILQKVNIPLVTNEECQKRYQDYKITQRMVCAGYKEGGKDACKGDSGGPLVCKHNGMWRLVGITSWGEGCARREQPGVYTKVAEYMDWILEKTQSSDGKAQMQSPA
Chain of purified Human plasma Kallikrein (P03952 20-390 partner): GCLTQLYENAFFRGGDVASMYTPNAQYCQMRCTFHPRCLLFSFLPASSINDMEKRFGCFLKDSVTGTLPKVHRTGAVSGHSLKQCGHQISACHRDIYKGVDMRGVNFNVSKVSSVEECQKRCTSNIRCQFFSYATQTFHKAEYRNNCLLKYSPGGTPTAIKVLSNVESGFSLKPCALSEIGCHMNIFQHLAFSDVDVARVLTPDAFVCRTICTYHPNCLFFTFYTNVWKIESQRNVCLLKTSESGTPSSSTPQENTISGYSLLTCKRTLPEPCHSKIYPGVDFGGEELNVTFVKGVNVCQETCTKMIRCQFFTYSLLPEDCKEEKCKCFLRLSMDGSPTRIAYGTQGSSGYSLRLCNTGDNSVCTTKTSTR

Take `COC(=O)Nc1ccc2c(c1)NC(=O)CCCC[C@H](c1ccc(-c3cc(Cl)ccc3-n3cc(C4CC4)nn3)c[n+]1[O-])c1cccc-2c1` (single isomer, unassigned) [Example 38]: the Ki (as a rule, the equilibrium dissociation constant of an inhibitor or competing ligand from its target) amounted to 0.95 nM.

For the compound `COC(=O)Nc1ccc2c(c1)NC(=O)C(C)CCCC(c1cc(OC)c(-c3c(F)ccc(Cl)c3F)c[n+]1[O-])c1cccc-2c1` (single isomer, unassigned) [Example 88-b, 5-(3-Chloro-2,6-difluorophenyl)-4-methoxy-2-(2^4-((methoxycarbonyl)amino)-5-methyl-4-oxo-3-aza-1(1,3),2(1,2) -dibenzenacyclononaphane-9-yl)pyridine 1-oxide], the Ki is 2.67 nM.

In the case of `COC(=O)Nc1ccc2c(c1)NC(=O)CCCC[C@H](c1ccc(-c3c(OC(F)F)ccc(F)c3F)c[n+]1[O-])c1nc-2c(C)[nH]1` (single isomer, unassigned) [Example 130], the inhibition constant (Ki) was determined as 0.66 nM.

Consider `COC(=O)Nc1ccc2c(c1)NC(=O)CCCC[C@H](c1ccc(-c3c(F)cccc3-n3cc(C(F)(F)F)cn3)c[n+]1[O-])c1nc-2c[nH]1` (single isomer, unassigned) [Example 115], for which the inhibition constant (Ki) stood at 331 nM.

Turning to `COC(=O)Nc1ccc2c(c1)NC(=O)[C@@H](C)CCC[C@H](c1ccc(-c3cc(F)ccc3OC(F)(F)F)c[n+]1[O-])c1nc-2c(C)[nH]1` (single isomer, unassigned) [Example 149-c], the Ki stood at 7.71 nM.

`COC(=O)Nc1ccc2c(c1)NC(=O)[C@@H](C)CCC[C@@H](c1ccc(-c3cc(F)ccc3OC(F)(F)F)c[n+]1[O-])c1nc-2c(C)[nH]1` (single isomer, unassigned) [Example 149-b] gave a Ki of 53.7 nM. Against the preceding compound, the Ki is about 7-fold higher.

Compound `COC(=O)Nc1ccc2c(c1)NC(=O)[C@H](C)CCC[C@H](c1ccc(-c3c(F)cccc3F)c[n+]1[O-])c1nc-2c(C2CC2)[nH]1` (single isomer, unassigned) [Example 145-a] gave an inhibition constant Ki of 0.3 nM.

With `COC(=O)Nc1ccc2c(c1)NC(=O)CCCCC(c1ccc(-c3cc(Cl)ccc3-n3cc(C(=O)O)nn3)cn1)c1cccc-2c1` (single isomer, unassigned) [Example 92-a, 1-(4-chloro-2-(6-(2^4-((methoxycarbonyl)amino)-4-oxo-3-aza-1(1,3),2(1,2) -dinenzenacyclononaphane-9-yl)pyridin-3-yl)phenyl)-1H-1,2,3-triazole-4-carboxylic acid], the Ki came out at 26 nM.

`COC(=O)Nc1ccc2c(c1)NC(=O)C(C)CCCC(c1ccc(-c3c(F)ccc(Cl)c3F)cn1)c1cc-2ccn1` (single isomer, unassigned) [Example 95-a, Methyl (9-(5-(3-chloro-2,6-difluorophenyl)pyridin-2-yl)-5-methyl-4-oxo-3-aza-1(4,2)-pyridina-2(1,2)-benzenacyclononaphane-2^4-yl)carbamate] displayed a Ki of 11.7 nM.

In turn, `COC(=O)Nc1ccc2c(c1)NC(=O)C(C)CCCC(c1ccc(-c3c(F)ccc(Cl)c3F)c[n+]1[O-])c1nc-2c[nH]1` (single isomer, unassigned) [Example 114-a, (Z)-5-(3-chloro-2,6-difluorophenyl)-2-(2^4-((methoxycarbonyl)amino)-5-methyl-4-oxo-1^1H-3-aza-1(4,2)-imidazola-2(1,2) -benzenacyclononaphane-9-yl)pyridine 1-oxide] displayed a Ki of 0.24 nM.

The compound `COC(=O)Nc1ccc2c(c1)NC(=O)CCCC[C@H](c1ccc(-c3c(F)cccc3OC(F)F)c[n+]1[O-])c1nc-2c(C)[nH]1` (single isomer, unassigned) [Example 126] had an inhibition constant Ki of 2.03 nM.

Take `COC(=O)Nc1ccc2c(c1)NC(=O)CCCC[C@H](c1ccc(-c3c(F)cccc3OC(F)F)c[n+]1[O-])c1cccc-2c1` (single isomer, unassigned) [Example 34]: the affinity, expressed as Ki, was 5.01 nM.

Regarding `CCc1[nH]c2nc1-c1ccc(NC(=O)OC)cc1NC(=O)[C@@H](C)CCC[C@@H]2c1ccc(-c2c(F)cccc2OC(F)F)c[n+]1[O-]` (single isomer, unassigned) [Example 146-c], the Ki amounted to 3.46 nM. The Ki values of the last two compounds are within 1.5-fold of each other.

For `CCc1[nH]c2nc1-c1ccc(NC(=O)OC)cc1NC(=O)[C@H](C)CCC[C@@H]2c1ccc(-c2c(F)cccc2OC(F)F)c[n+]1[O-]` (single isomer, unassigned) [Example 146-a], the Ki turned out to be 0.71 nM.

`COC(=O)Nc1ccc2c(c1)NC(=O)CC[C@@H](C)C[C@H](c1ccc(-c3c(F)ccc(Cl)c3F)c[n+]1[O-])c1nc-2c(C)[nH]1` (single isomer, unassigned) [Example 151-a]: the inhibition constant (Ki) was 0.16 nM.

Compound `COC(=O)Nc1ccc2c(c1)NC(=O)[C@@H](C)CCC[C@H](c1ccc(-c3c(F)cccc3F)c[n+]1[O-])c1nc-2c(C2CC2)[nH]1` (single isomer, unassigned) [Example 145-c] came in with a Ki of 1.1 nM.

For `COC(=O)Nc1ccc2c(c1)NC(=O)CCCC[C@H](c1ccc(-c3c(F)cccc3-n3cc(C(F)(F)F)cn3)c[n+]1[O-])c1nc-2c(C)[nH]1` (single isomer, unassigned) [Example 137], the Ki is 418 nM.

In turn, `COC(=O)Nc1ccc2c(c1)NC(=O)C(C)CCCC(c1ccc(-c3c(F)ccc(Cl)c3F)cn1)c1cc-2ccn1` (single isomer, unassigned) [Example 95-d, Methyl (9-(5-(3-chloro-2,6-difluorophenyl)pyridin-2-yl)-5-methyl-4-oxo-3-aza-1(4,2)-pyridina-2(1,2)-benzenacyclononaphane-2^4-yl)carbamate] gave a Ki of 10.8 nM.

`COC(=O)Nc1ccc2c(c1)NC(=O)[C@H](C)CCC[C@H](c1ccc(-c3c(OC(F)F)ccc(F)c3F)c[n+]1[O-])c1nc-2c(C)[nH]1` (single isomer, unassigned) [Example 150-a] registered a Ki of 0.51 nM.

Compound `COC(=O)Nc1ccc2c(c1)NC(=O)CC[C@@H](C)C[C@@H](c1ccc(-c3c(F)ccc(Cl)c3F)c[n+]1[O-])c1nc-2c(C)[nH]1` (single isomer, unassigned) [Example 151-c] returned a Ki of 29 nM.

In the case of `COC(=O)Nc1ccc2c(c1)NC(=O)CCCCC(c1ccc(-c3c(F)cccc3OC(F)(F)F)c[n+]1[O-])c1nc-2c(C)[nH]1` (single isomer, unassigned) [Example 131], affinity was put at a Ki of 5.32 nM.

On to `COC(=O)Nc1ccc2c(c1)NC(=O)CCCC[C@H](c1ccc(-c3c(F)ccc(Cl)c3F)c[n+]1[O-])c1ccc(F)c-2c1` (single isomer, unassigned) [Example 68], for which the Ki worked out at 2.09 nM.

`COC(=O)Nc1ccc2c(c1)NC(=O)CC[C@H](C)C[C@H](c1ccc(-c3c(F)ccc(Cl)c3F)c[n+]1[O-])c1nc-2c(C)[nH]1` (single isomer, unassigned) [Example 151-b] gave a Ki of 10.8 nM.

Take `COC(=O)Nc1ccc2c(c1)NC(=O)CCCCC(c1ccc(-c3c(F)ccc(Cl)c3F)c[n+]1[O-])c1ccnc-2c1` (single isomer, unassigned) [Example 93-a, 5-(3-Chloro-2,6-difluorophenyl)-2-(2^4-((methoxycarbonyl)amino)-4-oxo-3-aza-1 (2,4)-pyridina-2(1,2)-benzenacyclononaphane-9-yl)pyridine 1-oxide]: the Ki was found to be 1.92 nM. This Ki is about 5.6-fold lower than that of the compound before.

`COC(=O)Nc1ccc2c(c1)NC(=O)CCCC[C@H](c1ccc(-c3cc(Cl)ccc3-n3cnnn3)c[n+]1[O-])c1cc-2ncc1F` (single isomer, unassigned) [Example 71] had an inhibitory constant (Ki) of 0.33 nM. Compared with the last compound, the Ki is about 5.8-fold lower.

For the origin of these results see patent US10214512B2, “Factor XIA inhibitors” (MERCK SHARP & DOHME CORP., priority 2015, dated 2019).
